One may read the IC50 as the concentration that gives 50% inhibition.

One experiment has as its target T1, human Polq polymerase domain (Homo sapiens, UniProt O75417).
T1 sequence (O75417 1792-2590): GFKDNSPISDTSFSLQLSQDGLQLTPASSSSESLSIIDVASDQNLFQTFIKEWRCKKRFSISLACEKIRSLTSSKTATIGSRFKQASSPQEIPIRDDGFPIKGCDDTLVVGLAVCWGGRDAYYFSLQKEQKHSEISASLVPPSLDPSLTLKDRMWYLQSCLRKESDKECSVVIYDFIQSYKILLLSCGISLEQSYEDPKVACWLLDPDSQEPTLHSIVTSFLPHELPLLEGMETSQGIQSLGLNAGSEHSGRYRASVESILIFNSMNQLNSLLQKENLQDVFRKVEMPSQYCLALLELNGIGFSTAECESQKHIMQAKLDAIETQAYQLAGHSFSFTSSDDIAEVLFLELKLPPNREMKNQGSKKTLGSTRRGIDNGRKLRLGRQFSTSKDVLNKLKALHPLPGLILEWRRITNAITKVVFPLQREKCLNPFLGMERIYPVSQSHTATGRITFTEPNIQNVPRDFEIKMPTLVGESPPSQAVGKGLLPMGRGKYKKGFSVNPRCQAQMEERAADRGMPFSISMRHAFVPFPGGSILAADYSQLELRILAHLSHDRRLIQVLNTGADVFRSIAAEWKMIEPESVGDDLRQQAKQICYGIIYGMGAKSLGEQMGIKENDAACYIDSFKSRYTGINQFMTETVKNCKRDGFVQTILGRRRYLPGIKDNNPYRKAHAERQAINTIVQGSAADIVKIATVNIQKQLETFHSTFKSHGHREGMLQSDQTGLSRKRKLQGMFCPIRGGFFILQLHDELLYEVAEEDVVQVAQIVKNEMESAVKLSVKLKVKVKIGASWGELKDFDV
The experiment can be described thus: Cy5 fluorescence assay of Polq polymerase domain inhibition.
Details: not given
Format: biochemical. As for the experimental part:
The following Cy5 fluorescence assay was used to measure the ability of compounds to inhibit Polq polymerase domain in vitro. The fluorescent based assay was performed as follows: 60 nM of the pre-annealed primer-template containing a 5′ Cy5 fluorophore conjugated template strand (SEQ ID NO:3: 5′-/5Cy5/[…]-3′), a downstream complementary oligo conjugated with a 3′ Blackhole quencher (SEQ ID NO:4: 5′-CTAAGCTCACAGTG/3IAbRQSp/-3′) and a primer strand (SEQ ID NO:5: 5′-CTGTCCTGCATGATG-3′) was mixed with 50 uM 2′-deoxyribonucleoside triphosphates (dNTPs), 0.1 mg/mL Bovine serum albumin (BSA), 0.01% NP-40, 10% glycerol, 1 mM dithiothreitol (DTT), 10 mM MgCl2, 25 mM TrisHCl pH 7.8 in the presence of 2.5% DMSO with or without various concentrations (7-point dilution series) of Polq small molecule inhibitors represented by Formula I at 37 °C in a volume of 40 μL.
In turn, `CN(C(=O)Oc1c(N2CCNC2=O)cc(C(F)(F)F)cc1C(F)(F)F)c1ccc(OC(F)F)cc1` [Example 26, 2-(2-oxoimidazolidin-1-yl)-4,6-bis(trifluoromethyl)phenyl (4-(difluoromethoxy)phenyl)(methyl)carbamate] returned an IC50 of 48 nM. In the case of `CN1C(=O)CN(c2cc(C(F)(F)F)cc(C(F)(F)F)c2OC(=O)N(C)c2ccc(F)cc2)C1=O` [Example 27, 2-(3-methyl-2,4-dioxoimidazolidin-1-yl)-4,6-bis(trifluoromethyl)phenyl N-(4-fluorophenyl)-N-methylcarbamate], the IC50 came out at 24 nM. Still for that read-out and setting: the result for `Cc1cc(N(C)C(=O)Oc2c(N3CCNC3=O)cc(C(F)(F)F)cc2C(F)(F)F)ccc1F` [Example 28, 2-(2-oxoimidazolidin-1-yl)-4,6-bis(trifluoromethyl)phenyl N-(4-fluoro-3-methylphenyl)-N-methylcarbamate] reads 1200 nM; that for `CN(C(=O)Oc1c(N2CCNC2=O)cc(C(F)(F)F)cc1C(F)(F)F)c1ccc2ccn(C)c2n1` [Example 29, 2-(2-oxoimidazolidin-1-yl)-4,6-bis(trifluoromethyl)phenyl N-methyl-N-{1-methyl-1H-pyrrolo[2,3-b]pyridin-6-yl}carbamate], 18000 nM. The compound `CN(C(=O)Oc1c(N2CCN(CCOS(=O)(=O)NC(=O)COCCOCCOCCN)C2=O)cc(C(F)(F)F)cc1C(F)(F)F)c1ccc(F)cc1` [Example 30, 2-(3-(2-(((4-fluorophenyl)(methyl)carbamoyl)oxy)-3,5-bis(trifluoromethyl)phenyl)-2-oxoimidazolidin-1-yl)ethyl (2-(2-(2-(2-aminoehoxy)ethoxy)ethoxy)acetyl)sulfamate] had an IC50 of 2.2 nM. With `CN(C(=O)Oc1c(N2CCN(CCOC(F)F)C2=O)cc(C(F)(F)F)cc1C(F)(F)F)c1ccc(F)cc1` [Example 32, 2-(3-(2-(difluoromethoxy)ethyl)-2-oxoimidazolidin-1-yl)-4,6-bis(trifluoromethyl)phenyl N-(4-fluorophenyl)-N-methylcarbamate], half-maximal inhibition (IC50) was put at 2.3 nM. Regarding `CN(C(=O)Oc1c(N2CCN(C3CC(O)C3)C2=O)cc(C(F)(F)F)cc1C(F)(F)F)c1ccc(F)cc1` (centres unmarked) [Example 34, 2-(3-(3-hydroxycyclobutyl)-2-oxoimidazolidin-1-yl)-4,6-bis(trifluoromethyl)phenyl (4-Fluorophenyl)(methyl)carbamate], the IC50 amounted to 2 nM. Still for that read-out and setting: the result for `CN(C(=O)Oc1c(N2CCN(C3CCS(=O)(=O)C3)C2=O)cc(C(F)(F)F)cc1C(F)(F)F)c1ccc(F)cc1` (centres unmarked) [Example 35, 2-(3-(1,1-dioxidotetrahydrothiophen-3-yl)-2-oxoimidazolidin-1-yl)-4,6-bis(trifluoromethyl)phenyl (4-fluorophenyl)(methyl)carbamate] reads 2.5 nM; that for `[2H]C([2H])([2H])N(C(=O)Oc1c(N2CCN(CC3(O)CNC3)C2=O)cc(C(F)(F)F)cc1C(F)(F)F)c1ccc(F)cc1` [Example 36, 2-(3-((3-hydroxyazetidin-3-yl)methyl)-2-oxoimidazolidin-1-yl)-4,6-bis(trifluoromethyl)phenyl (4-fluorophenyl)(methyl-d3)carbamate], 6 nM.

Staying with this experiment, now noted: 5 nM Polq polymerase domain (residues 1792-2590), 60 nM primer-template, 50 uM dNTPs, 37 °C, 18 min; read-out: IC50 (nM) Polq.
With `O=C1NCCN1c1cc(C(F)(F)F)cc(C(F)(F)F)c1OC(=O)N(c1ccc(F)cc1)C1CC1` [Example 31, 2,4-bis(trifluoromethyl)-6-(2-oxoimidazolidin-1-yl)phenyl cyclopropyl4-fluorophenylcarbamate], the IC50 is 31 nM.

In the case of `CN(C(=O)Oc1c(N2CCNC2=O)cc(C(F)(F)F)cc1C(F)(F)F)c1ccccc1CC#N` [Example 33, 2,4-bis(trifluoromethyl)-6-(2-oxoimidazolidin-1-yl)phenyl 2-(cyanomethyl)phenylmethylcarbamate], the IC50 turned out to be 590 nM.

These data come from US20260356820A1, “Pyrrolidine and Imidazolidine Based DNA Polymerase Theta Inhibitors and Use Thereof” (Thomas Jefferson University, priority 2022, published 2026).
